How the values were obtained:
[1] = molecular target: T1, KRAS G12D (Homo sapiens, UniProt P01116, G12D); assay: HTRF nucleotide exchange assay, KRAS G12D; assay type: biochemical; conditions: HTRF nucleotide exchange assay (NEA), class symbols
T1 construct: aa1-188 KRAS WT, HRAS WT, NRAS WT, or KRAS containing the G12D

[2] = molecular target: T2, KRAS WT (Homo sapiens, UniProt P01116); assay: HTRF nucleotide exchange assay, KRAS WT; assay type: biochemical; conditions: class symbols; for IC50: HTRF nucleotide exchange assay (NEA)
T2 construct: aa1-188 KRAS WT
T2 sequence (P01116 1-188 isoform P01116-2): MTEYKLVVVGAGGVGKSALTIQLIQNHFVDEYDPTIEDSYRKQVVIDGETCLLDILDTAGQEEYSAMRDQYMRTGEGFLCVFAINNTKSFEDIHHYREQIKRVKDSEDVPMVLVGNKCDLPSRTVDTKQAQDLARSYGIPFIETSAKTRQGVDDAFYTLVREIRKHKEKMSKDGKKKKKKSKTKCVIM

T1 sequence (P01116 1-188 isoform P01116-2 G12D): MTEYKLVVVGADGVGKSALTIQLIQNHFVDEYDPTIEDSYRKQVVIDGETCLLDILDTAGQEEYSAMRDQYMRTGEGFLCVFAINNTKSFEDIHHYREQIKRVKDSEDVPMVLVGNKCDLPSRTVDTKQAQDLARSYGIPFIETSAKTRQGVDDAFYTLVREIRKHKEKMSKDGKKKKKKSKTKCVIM

CCNC(=O)c1cc2n(n1)CCCN(c1nc(OC[C@@]34CCCN3C[C@H](F)C4)nc3c(C)c(-c4cc(O)cc5ccc(F)c(CC)c45)c4nn(C)cc4c13)C2 [Example 181, N-ethyl-5-[4-(8-ethyl-7-fluoro-3-hydroxy-1-naphthyl)-7-[[(2R,8S)-2-fluoro-1,2,3,5,6,7-hexahydropyrrolizin-8-yl]methoxy]-2,5-dimethyl-pyrazolo[4,3-f]quinazolin-9-yl]-4,6,7,8-tetrahydropyrazolo[1,5-a][1,4]diazepine-2-carboxamide]
IC50 [1]: ≤ 0.01 µM
IC50 [2]: ≤ 0.01 µM

CCc1c(F)ccc2cc(O)cc(-c3c(F)c4nc(OCC5COCCN5)nc(N5CCOCC(C)(O)C5)c4c4cn(C)nc34)c12 (centres unmarked) [Example 233, 4-[4-(8-ethyl-7-fluoro-3-hydroxy-1-naphthyl)-5-fluoro-2-methyl-7-(morpholin-3-ylmethoxy)pyrazolo[4,3-f]quinazolin-9-yl]-6-methyl-1,4-oxazepan-6-ol]
IC50 [1]: ≤ 0.01 µM
IC50 [2]: 0.01 to 0.1 µM

CCc1c(F)ccc2cc(O)cc(-c3cc4nc(OC[C@@]56CCCN5C[C@H](F)C6)nc(N5CC(C(C)(C)O)C5)c4c4cn(C)nc34)c12 [Example 128, 5-ethyl-6-fluoro-4-[9-[3-(1-hydroxy-1-methyl-ethyl)azetidin-1-yl]-2-methyl-7-[[(2R,8S)-2-fluoro-1,2,3,5,6,7-hexahydropyrrolizin-8-yl]methoxy]pyrazolo[4,3-f]quinazolin-4-yl]naphthalen-2-ol]
IC50 [1]: 0.1 to 10 µM
KRAS^WT NEA [2]: D (<49% inhibition at 10 μM)

CN(C)C(=O)c1cc2n(n1)CCCN(c1nc(OC[C@@]34CCCN3C[C@H](F)C4)nc3cc(-c4cc(O)ccc4C#N)c4nn(C)cc4c13)C2 [Example 62]
IC50 [1]: 0.01 to 0.1 µM
IC50 [2]: 0.1 to 10 µM

CCc1c(F)ccc2cc(O)cc(-c3c(F)c4nc(OC[C@@]56CCCN5C[C@H](F)C6)nc(N5CCCC(C)(O)C5)c4c4cn(C)nc34)c12 (stereo partly drawn) [Example 100, (3R)-1-[4-bromo-5-fluoro-2-methyl-7-[[(2R,8S)-2-fluoro-1,2,3,5,6,7-hexahydropyrrolizin-8-yl]methoxy]pyrazolo[4,3-f]quinazolin-9-yl]-3-methyl-piperidin-3-ol]
IC50 [1]: ≤ 0.01 µM
IC50 [2]: ≤ 0.01 µM

CCc1c(F)ccc2c(F)c(O)cc(-c3cc4nc(OC[C@@]56CCCN5C[C@H](F)C6)nc(N5CCCn6nc(C(=O)N(C)C)cc6C5)c4c4cn(C)nc34)c12 [Example 82, 5-[4-(8-ethyl-4,7-difluoro-3-hydroxy-1-naphthyl)-2-methyl-7-[[(2R,8S)-2-fluoro-1,2,3,5,6,7-hexahydropyrrolizin-8-yl]methoxy]pyrazolo[4,3-f]quinazolin-9-yl]-N,N-dimethyl-4,6,7,8-tetrahydropyrazolo[1,5-a][1,4]diazepine-2-carboxamide]
IC50 [1]: ≤ 0.01 µM
IC50 [2]: ≤ 0.01 µM

CCc1c(F)ccc2cc(O)cc(-c3cc4nc(OCC5CCCN5C)nc(N5CCCOCC5)c4c4cn(C)nc34)c12 (centres unmarked) [Example 18, 5-ethyl-6-fluoro-4-[2-methyl-7-[(1-methylpyrrolidin-2-yl)methoxy]-9-(1,4-oxazepan-4-yl)pyrazolo[4,3-f]quinazolin-4-yl]naphthalen-2-ol]
IC50 [1]: 0.01 to 0.1 µM
IC50 [2]: 0.01 to 0.1 µM

CCc1c(F)ccc2cc(O)cc(-c3c(F)c4nc(OCC5COCCN5C)nc(N5CCOCC(C)(O)C5)c4c4cn(C)nc34)c12 (centres unmarked) [Example 232, 4-[4-(8-ethyl-7-fluoro-3-hydroxy-1-naphthyl)-5-fluoro-2-methyl-7-[(4-methylmorpholin-3-yl)methoxy]pyrazolo[4,3-f]quinazolin-9-yl]-6-methyl-1,4-oxazepan-6-ol]
IC50 [1]: 0.01 to 0.1 µM
IC50 [2]: 0.01 to 0.1 µM

CCc1c(F)ccc2cc(O)cc(-c3c(F)c4nc(OCC5(CN6CC(F)(F)C6)CC5)nc(N5CCOCC(C)(O)C5)c4c4cn(C)nc34)c12 (centres unmarked) [Example 191, 4-[7-[[1-[(3,3-difluoroazetidin-1-yl)methyl]cyclopropyl]methoxy]-4-(8-ethyl-7-fluoro-3-hydroxy-1-naphthyl)-5-fluoro-2-methyl-pyrazolo[4,3-f]quinazolin-9-yl]-6-methyl-1,4-oxazepan-6-ol]
IC50 [1]: ≤ 0.01 µM
IC50 [2]: 0.01 to 0.1 µM

CCc1c(F)ccc2cc(Cl)cc(-c3cc4nc(OC[C@@]56CCCN5C[C@H](F)C6)nc(N5CCCn6nc(C(=O)N(C)C)cc6C5)c4c4cn(C)nc34)c12 [Example 104, 5-[4-(3-chloro-8-ethyl-7-fluoro-1-naphthyl)-2-methyl-7-[[(2R,8S)-2-fluoro-1,2,3,5,6,7-hexahydropyrrolizin-8-yl]methoxy]pyrazolo[4,3-f]quinazolin-9-yl]-N,N-dimethyl-4,6,7,8-tetrahydropyrazolo[1,5-a][1,4]diazepine-2-carboxamide]
IC50 [1]: 0.01 to 0.1 µM
IC50 [2]: 0.1 to 10 µM

Cc1cc2[nH]ncc2c(-c2cc3nc(OC[C@@]45CCCN4C[C@H](F)C5)nc(N4CCCn5nc(C(=O)N(C)C)cc5C4)c3c3cn(C)nc23)c1C1CC1 [Example 74, 5-[4-(5-cyclopropyl-6-methyl-1H-indazol-4-yl)-2-methyl-7-[[(2R,8S)-2-fluoro-1,2,3,5,6,7-hexahydropyrrolizin-8-yl]methoxy]pyrazolo[4,3-f]quinazolin-9-yl]-N,N-dimethyl-4,6,7,8-tetrahydropyrazolo[1,5-a][1,4]diazepine-2-carboxamide]
IC50 [1]: ≤ 0.01 µM
IC50 [2]: 0.01 to 0.1 µM

CCc1c(F)ccc2cc(O)cc(-c3c(C)c4nc(OCC5(CN6CCCC6)CC5)nc(N5CCOCC(C)(O)C5)c4c4cn(C)nc34)c12 (centres unmarked) [Example 146, 4-[4-(8-ethyl-7-fluoro-3-hydroxy-1-naphthyl)-2,5-dimethyl-7-[[1-(pyrrolidin-1-ylmethyl)cyclopropyl]methoxy]pyrazolo[4,3-f]quinazolin-9-yl]-6-methyl-1,4-oxazepan-6-ol]
IC50 [1]: ≤ 0.01 µM
IC50 [2]: ≤ 0.01 µM

C#Cc1c(F)ccc2cc(O)cc(-c3cc4nc(OC[C@@]56CCCN5C[C@H](F)C6)nc(N5CCCNCC5)c4c4cn(C)nc34)c12 (single isomer, unassigned) [Example 35]
IC50 [1]: 0.1 to 10 µM
KRAS^WT NEA [2]: D (<49% inhibition at 10 μM)

CCc1c(F)ccc2cc(O)cc(-c3cc4nc(OCC56CCCN5CCC6)nc(N5CCCC(C)(O)C5)c4c4cn(C)nc34)c12 (centres unmarked) [Example 28, 1-[4-(8-ethyl-7-fluoro-3-hydroxy-1-naphthyl)-7-(1,2,3,5,6,7-hexahydropyrrolizin-8-ylmethoxy)-2-methyl-pyrazolo[4,3-f]quinazolin-9-yl]-3-methyl-piperidin-3-ol]
IC50 [1]: ≤ 0.01 µM
IC50 [2]: ≤ 0.01 µM

CCc1c(F)ccc2cc(O)cc(-c3c(C)c4nc(OCC5(C#N)CCOC5)nc(N5CC6CCC(C5)N6)c4c4cn(C)nc34)c12 (centres unmarked) [Example 241, 3-[[9-(3,8-diazabicyclo[3.2.1]octan-3-yl)-4-(8-ethyl-7-fluoro-3-hydroxy-1-naphthyl)-2,5-dimethyl-pyrazolo[4,3-f]quinazolin-7-yl]oxymethyl]tetrahydrofuran-3-carbonitrile]
IC50 [1]: ≤ 0.01 µM
IC50 [2]: 0.1 to 10 µM

CCc1c(F)ccc2cc(O)cc(-c3cc4nc(OC[C@@]56CCCN5C[C@H](F)C6)nc(N5CCOCC(C)C5)c4c4cn(C)nc34)c12 (stereo partly drawn) [Example 121, 5-ethyl-6-fluoro-4-[2-methyl-9-(6-methyl-1,4-oxazepan-4-yl)-7-[[(2R,8S)-2-fluoro-1,2,3,5,6,7-hexahydropyrrolizin-8-yl]methoxy]pyrazolo[4,3-f]quinazolin-4-yl]naphthalen-2-ol]
IC50 [1]: ≤ 0.01 µM
IC50 [2]: ≤ 0.01 µM

— patent publication US20260347364A1, “PYRAZOLO[4,3-F]QUINAZOLINE DERIVATIVES AS MODULATORS OF G12D MUTANT KRAS USEFUL FOR THE TREATMENT OF CANCER” (JAZZ PHARMACEUTICALS IRELAND LTD., priority 2023, published 2026)
